pIC50, pKd: −log10 of the molar value. One block for each compound: values may come before it. Activity calls are given as the source filed them. The rule behind the calls is not given here.
Tests used:
[1] = system: dengue virus type 2; experiment: Inhibition of N-terminal hexa-histidine tagged Dengue virus 2 NS2B/NS3 protease I30A/L31A mutant expressed in Escherichia coli BL21-Gold (DE3) at 20 uM using fluorogenic AMC-substituted peptide boc-GRR-7-amino-4-methylcoumarin measured every 30 secs for 10 mins by fluorometric assay relative to control
[2] = target: T1, Nonstructural protein 3 (Zika virus, UniProt A0A024AXB9); experiment: (§1) Inhibition of N-terminal hexa-histidine tagged Zika virus NS2B/NS3 protease expressed in Escherichia coli BL21-Gold (DE3) using fluorogenic AMC-substituted peptide boc-GRR-7-amino-4-methylcoumarin measured every 30 secs for 10 mins by fluorometric assay
T1 sequence (A0A024AXB9 whole entry): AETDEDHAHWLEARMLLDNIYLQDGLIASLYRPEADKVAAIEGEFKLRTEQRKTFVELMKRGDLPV

[3] = Inhibition of N-terminal hexa-histidine tagged Dengue virus 2 NS2B/NS3 protease I30A/L31A mutant expressed in Escherichia coli BL21-Gold (DE3) using fluorogenic AMC-substituted peptide boc-GRR-7-amino-4-methylcoumarin measured every 30 secs for 10 mins by fluorometric assay; set-up: species or system dengue virus type 2
[4] = system: dengue virus type 2; experiment: Antiviral activity against Dengue virus 2 infected in African green monkey Vero cells assessed as suppression of viral replication at 3 uM pre-incubated with cells for 1 hr before viral infection and measured after 4 days by RT-qPCR analysis; assay type: functional, organism-based
[5] = system: Zika virus; experiment: Antiviral activity against Zika virus infected in African green monkey Vero cells assessed as suppression of viral replication at 3 uM pre-incubated with cells for 1 hr before viral infection and measured after 4 days by RT-qPCR analysis; assay type: functional, organism-based
[6] = target: T1, Nonstructural protein 3; experiment: as §1, with “Non-competitive inhibition” for “Inhibition”, “using 50 to 200 uM” for “using”, “assay based Dixon plot analysis” for “assay”
[7] = Drug level in rat liver microsomes treated with (S)-N-(5,6-Dimethoxybenzo[d]thiazol-2-yl)-1-tosylpyrrolidine-2-carboxamide assessed as compound formation in presence of NADPH generating system by LC-MS/MS analysis; assay type: ADME, Microsome
[8] = Drug level in rat liver microsomes treated with (R)-N-(5,6-Dimethoxybenzo[d]thiazol-2-yl)-1-tosylpyrrolidine-2-carboxamide assessed as compound formation in presence of NADPH generating system by LC-MS/MS analysis; assay type: ADME, Microsome
[9] = target: Nonstructural protein 3 (Zika virus) (UniProt A0A024AXB9); experiment: Inhibition of N-terminal hexa-histidine tagged Zika virus NS2B/NS3 protease expressed in Escherichia coli BL21-Gold (DE3) at 20 uM using fluorogenic AMC-substituted peptide boc-GRR-7-amino-4-methylcoumarin measured every 30 secs for 10 mins by fluorometric assay relative to control
Chain of Nonstructural protein 3 (Zika virus) (A0A024AXB9 as listed by the source): as the sequence (A0A024AXB9 whole entry) above

[10] = system: dengue virus type 2; experiment: Antiviral activity against Dengue virus 2 infected in African green monkey Vero cells assessed as suppression of viral replication at 10 uM pre-incubated with cells for 1 hr before viral infection and measured after 4 days by RT-qPCR analysis; assay type: functional, organism-based
[11] = system: Zika virus; experiment: Antiviral activity against Zika virus infected in African green monkey Vero cells assessed as suppression of viral replication at 10 uM pre-incubated with cells for 1 hr before viral infection and measured after 4 days by RT-qPCR analysis; assay type: functional, organism-based
[12] = system: Zika virus; experiment: Antiviral activity against Zika virus French Polynesia infected in human A549 cells assessed as reduction in viral RNA at 5 uM measured after 24 to 72 hrs post infection by RT-qPCR analysis; assay type: functional, organism-based
[13] = target: T1, Nonstructural protein 3; experiment: Binding affinity to N-terminal hexa-histidine tagged Zika virus NS2B/NS3 protease expressed in Escherichia coli BL21-Gold (DE3) by microscale thermophoresis method
[14] = system: A549; experiment: Cytotoxicity against human A549 cells assessed as reduction in cell viability up to 5 uM by Presto blue cell viability reagent based assay
[15] = system: Zika virus; experiment: Antiviral activity against Zika virus Uganda infected in human A549 cells assessed as reduction in viral RNA at 5 uM measured after 24 to 72 hrs post infection by RT-qPCR analysis; assay type: functional, organism-based

SMILES: O=C(Nc1nc2cc(O)c(O)cc2s1)[C@@H]1CCCN1S(=O)(=O)c1ccccc1
inhibition [1]: 27%
pIC50 [2]: 5.84

SMILES: O=C(Nc1nc2cc(O)c(O)cc2s1)[C@H]1CCCN1S(=O)(=O)c1cccc([N+](=O)[O-])c1
inhibition [1]: 33%
pIC50 [2]: 5.95

SMILES: Cc1ccc(S(=O)(=O)N2CCCC[C@@H]2C(=O)Nc2nc3cc(O)c(O)cc3s2)cc1
pIC50 [3]: 4.54
pIC50 [2]: 6.24

SMILES: O=C(Nc1nc2cc(O)c(O)cc2s1)[C@H]1CCCN1S(=O)(=O)c1ccc([N+](=O)[O-])cc1
Activity [4]: Active
pIC50 [3]: 5.00
Activity [5]: inactive
pIC50 [2]: 6.49

SMILES: Cc1ccc(S(=O)(=O)Nc2ccccc2C(=O)Nc2nc3cc(O)c(O)cc3s2)cc1
pIC50 [3]: 4.82
pIC50 [6]: 5.27
pIC50 [2]: 5.19

Drug uptake [7]: Active
Drug uptake [8]: Active
SMILES: COc1cc2nc(NC(=O)[C@@H]3CCCN3S(=O)(=O)c3ccc(CO)cc3)sc2cc1OC

SMILES: COc1cc2nc(NC(=O)C3CCCN3S(=O)(=O)c3ccc(Cl)cc3)sc2cc1OC (stereo not drawn)
inhibition [9]: inactive
inhibition [1]: inactive

SMILES: O=C(Nc1nc2cc(O)c(O)cc2s1)[C@@H]1CCCN1S(=O)(=O)c1ccc(-c2ccccc2)cc1
pIC50 [3]: 4.87
pIC50 [2]: 5.50

SMILES: Cc1ccc(S(=O)(=O)N2CCC(C(=O)Nc3nc4cc(O)c(O)cc4s3)CC2)cc1
inhibition [1]: 41%
pIC50 [2]: 5.23

SMILES: Cc1ccc(S(=O)(=O)N2CCCC(C(=O)Nc3nc4cc(O)c(O)cc4s3)C2)cc1 (racemic)
inhibition [1]: 34%
pIC50 [2]: 5.34

SMILES: COc1ccc(S(=O)(=O)N2CCC[C@@H]2C(=O)Nc2nc3cc(OC)c(OC)cc3s2)cc1
inhibition [9]: inactive
inhibition [1]: inactive

SMILES: O=C(Nc1nc2cc(O)c(O)cc2s1)[C@H]1CCCN1S(=O)(=O)c1ccc(-c2ccccc2)cc1
pIC50 [3]: 4.96
pIC50 [2]: 5.61

SMILES: O=C(Nc1nc2cc(O)c(O)cc2s1)[C@@H]1CCCN1C(=O)c1ccccc1
inhibition [1]: 28%
pIC50 [2]: 5.81

SMILES: O=C(Nc1nc2cc(O)c(O)cc2s1)[C@@H]1CCCN1S(=O)(=O)c1ccc([N+](=O)[O-])cc1
pIC50 [3]: 5.07
Activity [10]: Active
Activity [11]: inactive
pIC50 [2]: 6.03

SMILES: Cc1ccc(S(=O)(=O)N2CCC[C@@H]2C(=O)Nc2nc3cc(O)c(O)cc3s2)cc1
pIC50 [3]: 4.71
Activity [12]: inactive
Drug uptake [7]: Active
pKd [13]: 6.31
Activity [14]: Non-Toxic
Activity [15]: inactive
Activity [5]: inactive
Drug uptake [8]: Active
pIC50 [2]: 5.88

SMILES: O=C(Nc1nc2cc(O)c(O)cc2s1)[C@@H]1CCCN1S(=O)(=O)c1cccc([N+](=O)[O-])c1
inhibition [1]: 25%
pIC50 [2]: 5.75

SMILES: COc1cc2nc(NC(=O)C3CCCN3S(=O)(=O)c3ccc([N+](=O)[O-])cc3)sc2cc1OC (stereo not drawn)
inhibition [9]: inactive
inhibition [1]: inactive

SMILES: O=C(Nc1nc2cc(O)c(O)cc2s1)[C@H]1CCCN1S(=O)(=O)c1ccc(Cl)cc1
inhibition [1]: 34%
pIC50 [2]: 5.85
